Source: patent US6420330B1, “Use of quaternary carboxylic acid alkanolamine ester salts as microbicide agents” (Cognis Deutschland GmbH, priority 1997, dated 2002)

What was measured:
Experiment in all cases: DGHM suspension test, microbicidal activity
Assay type in all cases: cell-based
[1] = tested on: Pseudomonas aeruginosa ATCC 15442
Protocol: (§1) The microbicidal activity of the quanterary carboxylic acid alkanolamine ester salts used in accordance with the invention was tested against the following selected test germs:
(§2) The effectiveness of the compound to be tested was determined by the suspension test in accordance with the guidelines of the Deutsche Gesellschaft for Hygiene and Mikrobiologie (DGHM). Test solutions containing quatemary carboxylic acid alkanolamine ester salts in the quantities shown in the Tables of 50, 100, 200, 400 and 800 mg/l were prepared using water with a hardness of 17° dH and optionally isopropanol.
(§3) At room temperatures, quantities of 0.1 ml test germ suspension were pipetted into test tubes containing 10 ml of the test solutions described above and mixed. After various contact times of 5, 15, 30 and 60 minutes, 1 ml of material was taken from the test tubes by pipette and transferred to 9 ml inactivator solution (inactivators: 3.0% Tween, 0.3% lecithin, 0.1% histidine). After in activation for at least 5 and at most 30 minutes, the living germ count was determined by plating out onto casein peptone-soybean flour peptone (CaSo)-agar plates. Using a spiral plater, the inactivating mixture was directly plated out onto CaSo-agar. The samples were incubated for 24 to 72 hours at 37° C. and macroscopically evaluated for growth. The destruction time or the residual germ count was determined in this way. The germ count of an unchallenged water control is related to the germ count of the inactivated test solution taking the dilution into account. The higher the value, the better the microbicidal effect. The symbol < means that the logarithmic reductuon factor is below the indicated value or, in the case of the symbol >, above the indicated value. The abbreviation CU stands for “concentration used”.

[2] = tested on: Staphylococcus aureus ATCC 6538
Protocol: as §1, §2, §3

[3] = tested on: Candida albicans ATCC 10231
Protocol: as §1, §2, §3

[4] = CU 50 mg/l, contact time 5 mins.
[5] = CU 50 mg/l, contact time 15 mins.
[6] = CU 50 mg/l, contact time 30 mins.
[7] = CU 50 mg/l, contact time 60 mins.
[8] = CU 100 mg/l, contact time 5 mins.
[9] = CU 100 mg/l, contact time 15 mins.
[10] = CU 100 mg/l, contact time 30 mins.
[11] = CU 100 mg/l, contact time 60 mins.
[12] = CU 200 mg/l, contact time 5 mins.
[13] = CU 200 mg/l, contact time 15 mins.
[14] = CU 200 mg/l, contact time 30 mins.
[15] = CU 200 mg/l, contact time 60 mins.
[16] = CU 400 mg/l, contact time 5 mins.
[17] = CU 400 mg/l, contact time 15 mins.
[18] = CU 400 mg/l, contact time 30 mins.
[19] = CU 400 mg/l, contact time 60 mins.
[20] = CU 800 mg/l, contact time 5 mins.
[21] = CU 800 mg/l, contact time 15 mins.
[22] = CU 800 mg/l, contact time 30 mins.
[23] = CU 800 mg/l, contact time 60 mins.

SMILES: CCCCCCCCCC(=O)OCC[N+](C)(CCO)CCOC(=O)CCCCCCCCC.COS(=O)(=O)[O-] [Example 6, methyl triethanolammonium dicapric acid ester methosulfate]
- logarithmic reduction factor [1, 4]: <1.85
- logarithmic reduction factor [1, 5]: <1.79
- logarithmic reduction factor [1, 6]: <1.71
- logarithmic reduction factor [1, 7]: <1.81
- logarithmic reduction factor [1, 8]: <1.85
- logarithmic reduction factor [1, 9]: <1.79
- logarithmic reduction factor [1, 10]: <1.71
- logarithmic reduction factor [1, 11]: 3.19
- logarithmic reduction factor [1, 12]: <1.85
- logarithmic reduction factor [1, 13]: <1.79
- logarithmic reduction factor [1, 14]: 3.35
- logarithmic reduction factor [1, 15]: 3.89
- logarithmic reduction factor [1, 16]: <1.85
- logarithmic reduction factor [1, 17]: <1.79
- logarithmic reduction factor [1, 18]: 4.18
- logarithmic reduction factor [1, 19]: >5.81
- logarithmic reduction factor [1, 20]: <1.85
- logarithmic reduction factor [1, 21]: 4.14
- logarithmic reduction factor [1, 22]: 4.76
- logarithmic reduction factor [1, 23]: >5.81
- logarithmic reduction factor [2, 4]: 4.12
- logarithmic reduction factor [2, 5]: >5.73
- logarithmic reduction factor [2, 6]: >5.75
- logarithmic reduction factor [2, 7]: >5.86
- logarithmic reduction factor [2, 8]: 4.58
- logarithmic reduction factor [2, 9]: >5.73
- logarithmic reduction factor [2, 10]: >5.75
- logarithmic reduction factor [2, 11]: >5.86
- logarithmic reduction factor [2, 12]: 4.55
- logarithmic reduction factor [2, 13]: >5.73
- logarithmic reduction factor [2, 14]: >5.75
- logarithmic reduction factor [2, 15]: >5.86
- logarithmic reduction factor [2, 16]: 4.48
- logarithmic reduction factor [2, 17]: >5.73
- logarithmic reduction factor [2, 18]: >5.75
- logarithmic reduction factor [2, 19]: >5.86
- logarithmic reduction factor [2, 20]: 5.44
- logarithmic reduction factor [2, 21]: >5.73
- logarithmic reduction factor [2, 22]: >5.75
- logarithmic reduction factor [2, 23]: >5.86
- logarithmic reduction factor [3, 4]: <0.87
- logarithmic reduction factor [3, 5]: 1.64
- logarithmic reduction factor [3, 6]: 1.93
- logarithmic reduction factor [3, 7]: 2.62
- logarithmic reduction factor [3, 8]: 1.27
- logarithmic reduction factor [3, 9]: 3.03
- logarithmic reduction factor [3, 10]: 3.75
- logarithmic reduction factor [3, 11]: 4.15
- logarithmic reduction factor [3, 12]: 1.24
- logarithmic reduction factor [3, 13]: 3.66
- logarithmic reduction factor [3, 14]: >4.78
- logarithmic reduction factor [3, 15]: >4.67
- logarithmic reduction factor [3, 16]: 1.38
- logarithmic reduction factor [3, 17]: 3.51
- logarithmic reduction factor [3, 18]: >4.78
- logarithmic reduction factor [3, 19]: >4.67
- logarithmic reduction factor [3, 20]: 1.33
- logarithmic reduction factor [3, 21]: >4.87
- logarithmic reduction factor [3, 22]: >4.78
- logarithmic reduction factor [3, 23]: >4.67

SMILES: CCCCCCCC(=O)OCC[N+](C)(CCO)CCOC(=O)CCCCCCC.COS(=O)(=O)[O-] [Example 7, Methyl triethanolammonium dicaprylic acid ester methosulfate]
- logarithmic reduction factor [1, 4]: <1.77
- logarithmic reduction factor [1, 5]: <1.72
- logarithmic reduction factor [1, 6]: <1.76
- logarithmic reduction factor [1, 7]: 3.65
- logarithmic reduction factor [1, 8]: 3.64
- logarithmic reduction factor [1, 9]: >5.72
- logarithmic reduction factor [1, 10]: >5.76
- logarithmic reduction factor [1, 11]: >5.86
- logarithmic reduction factor [1, 12]: 4.59
- logarithmic reduction factor [1, 13]: >5.72
- logarithmic reduction factor [1, 14]: 5.76
- logarithmic reduction factor [1, 15]: >5.86
- logarithmic reduction factor [1, 16]: 5.32
- logarithmic reduction factor [1, 17]: >5.72
- logarithmic reduction factor [1, 18]: >5.76
- logarithmic reduction factor [1, 19]: >5.86
- logarithmic reduction factor [1, 20]: >5.77
- logarithmic reduction factor [1, 21]: >5.72
- logarithmic reduction factor [1, 22]: >5.76
- logarithmic reduction factor [1, 23]: >5.86
- logarithmic reduction factor [2, 4]: >5.75
- logarithmic reduction factor [2, 5]: >5.53
- logarithmic reduction factor [2, 6]: >5.42
- logarithmic reduction factor [2, 7]: >5.69
- logarithmic reduction factor [2, 8]: >5.75
- logarithmic reduction factor [2, 9]: >5.53
- logarithmic reduction factor [2, 10]: >5.42
- logarithmic reduction factor [2, 11]: >5.69
- logarithmic reduction factor [2, 12]: >5.75
- logarithmic reduction factor [2, 13]: >5.53
- logarithmic reduction factor [2, 14]: >5.42
- logarithmic reduction factor [2, 15]: >5.69
- logarithmic reduction factor [2, 16]: >5.75
- logarithmic reduction factor [2, 17]: >5.53
- logarithmic reduction factor [2, 18]: >5.42
- logarithmic reduction factor [2, 19]: >5.69
- logarithmic reduction factor [2, 20]: >5.75
- logarithmic reduction factor [2, 21]: >5.53
- logarithmic reduction factor [2, 22]: >5.42
- logarithmic reduction factor [2, 23]: >5.69
- logarithmic reduction factor [3, 4]: >4.31
- logarithmic reduction factor [3, 5]: >4.18
- logarithmic reduction factor [3, 6]: >4.16
- logarithmic reduction factor [3, 7]: >4.27
- logarithmic reduction factor [3, 8]: >4.31
- logarithmic reduction factor [3, 9]: >4.18
- logarithmic reduction factor [3, 10]: >4.16
- logarithmic reduction factor [3, 11]: >4.27
- logarithmic reduction factor [3, 12]: >4.31
- logarithmic reduction factor [3, 13]: >4.18
- logarithmic reduction factor [3, 14]: >4.16
- logarithmic reduction factor [3, 15]: >4.27
- logarithmic reduction factor [3, 16]: >4.31
- logarithmic reduction factor [3, 17]: >4.18
- logarithmic reduction factor [3, 18]: >4.16
- logarithmic reduction factor [3, 19]: >4.27
- logarithmic reduction factor [3, 20]: >4.31
- logarithmic reduction factor [3, 21]: >4.18
- logarithmic reduction factor [3, 22]: >4.16
- logarithmic reduction factor [3, 23]: >4.27

SMILES: CCCCCCCCCC(=O)OCC[N+](C)(C)CCOC(=O)CCCCCCCCC.COS(=O)(=O)[O-] [Example 10, dimethyl diethanolammonium dicapric acid ester methosulfate]
- logarithmic reduction factor [1, 8]: 3.11
- logarithmic reduction factor [1, 9]: 3.48
- logarithmic reduction factor [1, 10]: 3.95
- logarithmic reduction factor [1, 11]: 4.84
- logarithmic reduction factor [1, 12]: 3.54
- logarithmic reduction factor [1, 13]: 4.51
- logarithmic reduction factor [1, 14]: 5.50
- logarithmic reduction factor [1, 15]: 5.44
- logarithmic reduction factor [1, 16]: 4.31
- logarithmic reduction factor [1, 17]: 5.04
- logarithmic reduction factor [1, 18]: 5.64
- logarithmic reduction factor [1, 19]: >5.79
- logarithmic reduction factor [2, 8]: >5.56
- logarithmic reduction factor [2, 9]: >5.55
- logarithmic reduction factor [2, 10]: >5.72
- logarithmic reduction factor [2, 11]: >5.69
- logarithmic reduction factor [2, 12]: >5.56
- logarithmic reduction factor [2, 13]: >5.55
- logarithmic reduction factor [2, 14]: >5.72
- logarithmic reduction factor [2, 15]: >5.69
- logarithmic reduction factor [2, 16]: >5.56
- logarithmic reduction factor [2, 17]: >5.55
- logarithmic reduction factor [2, 18]: >5.72
- logarithmic reduction factor [2, 19]: >5.69
- logarithmic reduction factor [3, 4]: 2.87
- logarithmic reduction factor [3, 5]: >4.84
- logarithmic reduction factor [3, 6]: >4.89
- logarithmic reduction factor [3, 7]: >4.80
- logarithmic reduction factor [3, 8]: 4.27
- logarithmic reduction factor [3, 9]: >4.84
- logarithmic reduction factor [3, 10]: >4.89
- logarithmic reduction factor [3, 11]: >4.80
